Results as given in patent US20050107289A1, “Anti-microbial peptides and compositions” (priority 2001, published 2005).
Non-standard residues stand in square brackets, D forms with d. Residues, ends and D or L forms follow the SMILES beside them.

Key:
[1] = system: S. aureus MRSA (ATCC 33591); assay: Mouse peritonitis model, MRSA protection; assay type: in vivo, mice; design: PD50 MRSA: unit not given here; conditions: for PD50 MRSA: Table 12, male Balb-C mice, IP infection, IP peptide; for In Vivo MRSA PD50: Table 13; for protection of mice from MRSA infection: single bolus IP dose of appropriate amount, 45-60 min after infection; for mice survived: fourteen-day study
Method: Bacteria were prepared for in vivo using procedures similar to those as previously described. […] S. aureus MRSA bacteria (ATCC 33591) were grown at 37° C. in 5 mL of Antibiotic Medium-3 (AM-3, Difco Laboratories) with agitation for 12 hours to a stationary phase. Cells were collected by centrifugation, washed twice with saline solution and resuspended in about 10 mL of saline to an O.D.650 of 1.2. This suspension was diluted ten times in a sterilized 5% mucin (Difco) in saline to a concentration of 2-4×10^7 cfu/ml (actual inoculum size was verified by colony counts on agar plates).
(§1) Peptides of the invention were tested in mice to ascertain whether they would protect the mice against bacterial infection using procedures similar to those described in N. Frimodt-Moller et al., The Mouse Peritonitis/Sepsis Model, in Zak et al. (eds.) HANDBOOK OF ANIMAL MODELS OF INFECTION 127-37 (Academic Press 1999).
(§2) Male Balb-C mice (6 weeks old, approximately 20 g) were used in the study. Staphylococcus aureus MRSA bacteria (ATCC 33591) were grown at 37° C. with agitation for 12 hours to a stationary phase. Cells were collected by centrifugation, washed twice with saline and resuspended to an O.D.650 of 1.4. This suspension was diluted ten times with saline and resuspended to a concentration of 3-5×10^7 cfu/ml. For each peptide five groups of eight mice per group were infected I.P. with 0.5 ml of the above Staphylococcus aureus MRSA preparation (lethal dose). Forty-five minutes to an hour after infection, each group was treated with a different dose of peptide and a control group received vehicle only. Mice were monitored for fourteen days; death was defined as the end point. Median protecting doses (PD50) were calculated following the Reed and Muench method. […] For IV and SQ models peptide was administered immediately after IP infection.

[2] = system: vancomycin resistant E. faecium (VREF)(ATCC 51575); assay: Mouse peritonitis model, VREF protection; assay type: in vivo, mice; design: PD50 VREF: unit not given here; conditions: for PD50 VREF: Table 12, male Balb-C mice, IP infection, IP peptide; for In Vivo VREF PD50: Table 13; for protection of mice from VREF infection: single bolus IP dose of appropriate amount, 45-60 min after infection
Method: Vancomycin resistant Enterococcus faecium (VREF) bacteria (ATCC 51575) were grown at 37° C. in 60 mL of Brain Heart Infusion medium (BHI, Difco Laboratories) with agitation for 16 hours to a stationary phase. Cells were collected by centrifugation, washed twice with saline solution and resuspended in 6 mL of saline to a theoretical O.D.650 of 9-10 (determined by taking OD.650 of 10-20 fold diluted samples and correlating it to the original concentration). This suspension was diluted 15 times in a sterilized 5% mucin (Difco) in saline to a concentration of 5-7×10^8 cfu/ml (actual inoculum size was verified by colony counts on agar plates).
as §1, §2

[3] = system: S. aureus (MRSA) (ATCC No. 33592); assay: Time-killing curve, S. aureus MRSA ATCC 33592; assay type: cell-based, Staphylococcus aureus; conditions: about 4 μg/ml
Method: (§3) The speed at which several of the cyclic peptides of the invention kill E. coli JM 109 (DE3), Enterococcus faecium SP 180 and S. aureus (MRSA) (ATCC No. 33591 and 33592) was further tested at room temperature and/or at 37° C. A lower temperature tends to enrich the bacterial cultures for mature bacteria because the bacteria are not growing quickly. […] The presence or absence of immature bacteria in the culture may influence the rate at which the bacteria are killed, because immature bacteria tend to be more susceptible to many forms of antibiotics.
FIGS. 9 and 10 illustrate the time course for killing S. aureus (MRSA) (ATCC No. 33592) with varying concentrations of cyclo[KSKWLWLW] cyclic peptide (SEQ ID NO:12) at room temperature and at 37° C. […] This may be due to growth of a few survivors after the residual cyclic peptide within the culture has been exhausted because the amount of peptide employed in that assay was below the MIC value.

[4] = system: Bacillus cereus ATCC 11778; assay type: cell-based
Outline: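 MICs come from NCCLS-style (M7-A4) dilution testing, mostly microdilution, with an inoculum near 2.5×10^5 cfu/ml from 4000-fold-diluted overnight cultures. Peptide series were 2-fold steps spanning roughly 400–2 μg/ml, prepared in 9% aqueous sucrose with 5% DMSO.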

E. faecium SP180 = assay: Time-killing curve, E. faecium SP180; assay type: cell-based, Enterococcus faecium; conditions: for time to kill effectively all bacteria / killing of bacteria: about 2 μg/ml, BHI broth
Method: as §3
FIGS. 11 and 12 illustrate the time course for killing E. faecium SP 180 with varying concentrations of KSKWLWLW (SEQ ID NO:12), at room temperature and at 37° C. Assays were performed in Brain Heart Infusion broth. As illustrated, somewhat shorter times and/or somewhat lower concentrations of this cyclic peptide are required to kill E. faecium SP180 at 37° C. than at room temperature. E. faecium SP180 is vancomycin resistant (vanA) and multiply resistant to several FDA approved antibiotics. […] This may be due to growth of a few survivors after the residual cyclic peptide within the culture has been exhausted because the amount of peptide employed in that assay was below the MIC value.

| SMILES | PD50 S. aureus MRSA infection [1] [mg/kg] | PD50 MRSA [1] | In Vivo MRSA PD50 [1] [mg/kg] | protection of mice from MRSA infection [1] | PD50 E. faecium VREF infection [2] [mg/kg] | PD50 VREF [2] | In Vivo VREF PD50 [2] [mg/kg] | protection of mice from VREF infection [2] | rebound of bacterial population ([3]; 37° C.) | time to kill effectively all bacteria ([3]; 37° C.) | rebound of bacterial population ([3]; room temperature) | time to kill all S. aureus (MRSA) ([3]; room temperature) [h] | B. cerius MIC [4] [µg/mL] | time to kill effectively all bacteria (E. faecium SP180; 37° C.) | killing of bacteria (E. faecium SP180; room temperature) | other results |
| --- | --- | --- | --- | --- | --- | --- | --- | --- | --- | --- | --- | --- | --- | --- | --- | --- |
| CC(C)C[C@H]1NC(=O)[C@H](Cc2c[nH]c3ccccc23)NC(=O)[C@@H](CCCNC(=N)N)NC(=O)[C@H](CCC(N)=O)NC(=O)[C@@H](CCCCN)NC(=O)[C@H](Cc2c[nH]c3ccccc23)NC(=O)[C@@H](CC(C)C)NC(=O)[C@H](Cc2c[nH]c3ccccc23)NC1=O [SEQ ID NO:8, cyclo-(D-Lys-Gln-D-Arg-Trp-D-Leu-Trp-D-Leu-Trp)] (cyclo([dK]Q[dR]W[dL]W[dL]W)) | 7 | 7 | 7 | completely protect | – | – | – | – | – | – | – | – | – | – | – | – |
| CC(C)C[C@H]1NC(=O)[C@H](Cc2c[nH]c3ccccc23)NC(=O)[C@@H](CCCCN)NC(=O)[C@H](CO)NC(=O)[C@@H](CCCCN)NC(=O)[C@H](Cc2c[nH]c3ccccc23)NC(=O)[C@@H](CC(C)C)NC(=O)[C@H](Cc2c[nH]c3ccccc23)NC1=O [SEQ ID NO:12, D-Lys-Ser-D-Lys-Trp-D-Leu-Trp-D-Leu-Trp] (cyclo([dK]S[dK]W[dL]W[dL]W)) | 20 | 20 | 20 | completely protect | 5 | 5 | 5 | completely protect | rebounds by about six hours | within about one hour | no rebound is observed | ≤ 2 | < 3 | faster than an aliquot can be removed from the test culture | discernible numbers of surviving bacteria can be detected immediately | rebound in bacterial viability (E. faecium SP180; 1 μg/ml, 37° C.): rebound in bacterial viability; time after which effectively no cfu can be detected (E. faecium SP180; 1 μg/ml, 37° C.): 2 h; surviving bacteria (E. faecium SP180; 1 μg/ml, room temperature): viable bacteria can be detected throughout the entire time-course |
| CC(C)C[C@H]1NC(=O)[C@H](Cc2c[nH]c3ccccc23)NC(=O)[C@@H](CCCCN)NC(=O)[C@H](CCCNC(=N)N)NC(=O)[C@@H](CCCNC(=N)N)NC(=O)[C@H](Cc2c[nH]c3ccccc23)NC(=O)[C@@H](CC(C)C)NC(=O)[C@H](Cc2c[nH]c3ccccc23)NC1=O [SEQ ID NO:18, cyclo-(D-Arg-Arg-D-Lys-Trp-D-Leu-Trp-D-Leu-Trp)] (cyclo([dR]R[dK]W[dL]W[dL]W)) | 8 | 8 | 8 | completely protect | 7 | 7 | 7 | completely protect | rebounds by about eight hours | within about one hour | no rebound is observed | ≤ 1 | 5 | within one hour | within one hour | mice survived ([1]; 40 mg/kg bolus SQ): 75%; mice survived ([1]; 2.5×5 mg/kg IV dosage regimen): 50%; PD50 protective dose where 50% of animals survive ([1]; FIG. 6, mice challenged with lethal doses of MRSA): 5 ± 2 mg/kg |
